Assay results published in PubChem BioAssay (NCI).
Several values for one entry are separate records, joined by “and”; a condition that tells them apart may be missing. Equal values may be shown once.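 Protocol summary: plate cells (96-well), add compound at 5 concentrations, incubate 48 h, interpolate endpoints linearly. At the GI50, growth is halved. The concentration for full growth arrest is given as TGI.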

Legend:
Experiment in all cases: inhibition of tumour cell growth, NCI panel, 48 h
[1] = system: K-562 leukemia
[2] = system: SK-MEL-2 melanoma
[3] = system: MDA-MB-231 breast
[4] = system: KM12 colon
[5] = system: U251 CNS
[6] = system: HOP-92 NSCLC
[7] = system: A549 NSCLC
[8] = system: SF-268 CNS
[9] = system: SW-620 colon
[10] = system: OVCAR-4 ovarian

SMILES | GI50 [1] [µM] | TGI [1] | GI50 [2] [µM] | TGI [2] | GI50 [3] [µM] | TGI [3] [µM] | GI50 [4] | TGI [4] [µM] | GI50 [5] | TGI [5] | GI50 [6] [µM] | TGI [6] | GI50 [7] [µM] | TGI [7] | GI50 [8] [µM] | TGI [8] | GI50 [9] | TGI [9] | GI50 [10] | TGI [10]
COc1cc(/C(=C2/O[C@@H]([C@H]3COC(C)(C)O3)[C@H]3OC(C)(C)O[C@@H]23)c2ccc3ccccc3c2)cc(OC)c1OC | 4.02 | > 100 µM | 1.53 | 4.12 µM | 6.28 | 69.7 | 6 µM | > 100 | 3.12 µM | 11.8 µM | 2.67 | 13.3 µM | 3.09 | 9.55 µM | 3.13 | 15.9 µM | 4.31 µM | > 100 µM | 2.82 µM | 8.02 µM
COC(=O)C1=COC(C)C2CN3CCc4c([nH]c5cc(OC)c(OC)cc45)C3CC12 (stereo not given) | – | > 100 µM | – | > 100 µM | – | > 100 | > 100 µM and 37.2 µM | > 100 | > 100 µM and 47.4 µM | > 100 µM | – | > 100 µM | – | > 100 µM | – | > 100 µM | > 100 µM and 39.1 µM | > 100 µM | 89.4 µM and 34.3 µM | > 100 µM
CCCCCCCCCCCC(=O)N1CCN(C(C)=O)CC1 | 22.9 | 59.7 µM | 19.2 | 35.7 µM | 21 | 38.2 | 25 µM | 56.5 | 50.5 µM | > 100 µM | 11.5 | 27.4 µM | 28 | > 100 µM | 39.8 | > 100 µM | 25.2 µM | 46.6 µM | 32.8 µM | > 100 µM
CC(C)(C)[Si](C)(C)OC1[C@@H](O[Si](C)(C)C(C)(C)C)[C@@H](CNC(=O)NC(=O)CF)O[C@H]1n1cnc2c(NC(=O)Nc3ccccc3)ncnc21 (stereo not given in full) | 14.7 | > 50 µM | 30.9 | > 50 µM | 7.76 | 23.1 | 9.36 µM | 38.3 | 9.67 µM | 25.8 µM | 6.48 | 19.8 µM | 6.92 | > 50 µM | 12.6 | > 50 µM | 15.5 µM | > 50 µM | 6.18 µM | > 50 µM
CC1=CCCC2C1(C)CCC(C)C2(C)Cc1cc(O)ccc1O (stereo not given) | 5.44 | 40.8 µM and 19.9 µM | – | 27.9 µM and 24 µM | – | 21.5 | 5.16 µM | 18.7 | – | 15.4 µM and 16.5 µM | – | 22.6 µM and 15.2 µM | 7.14 | 20.5 µM and 21.6 µM | 5.4 | 21.1 µM and 20.7 µM | 12.9 µM | 33.3 µM and 23.3 µM | 3.58 µM | 24.8 µM and 10.8 µM
C#CCN(Cc1nc2cc(C(F)(F)F)ccc2nc1-c1ccccc1)c1ccc(C)cc1 | 33 | > 100 µM | 6.19 | 34.5 µM | 9.39 | 40.4 | 9.94 µM | > 24.6 | 11.6 µM | > 38.1 µM | 31.7 | > 84.8 µM | 9.23 | > 93 µM | 17 | > 100 µM | 12.8 µM | > 100 µM | > 24.9 µM | > 43.2 µM
CC(N)(/C=C/c1ccccc1)C(=O)O (stereo not given) | – | > 100 µM | – | > 100 µM | – | > 100 | – | > 100 | – | > 100 µM | – | > 100 µM | – | > 100 µM | – | > 100 µM | – | > 100 µM | – | > 100 µM
C[C@@H](NC(=O)/C(C#N)=C/c1ccc([N+](=O)[O-])cc1)c1ccccc1 | 2.75 | 14 µM | 3.3 | 8.52 µM | 2.3 | 5.23 | 2.07 µM | 4.18 | 1.79 µM | 3.44 µM | 1.89 | 5.96 µM | 2.94 | 8.37 µM | 3.69 | 13.4 µM | 1.83 µM | 3.81 µM | 2.15 µM | 5.95 µM
COc1cccc(/C=N/NC(=O)c2ccccc2N2CCCC2)c1O | 5.45 | > 100 µM | 54 | > 100 µM | 7.31 | > 100 | 38.4 µM | > 100 | 4.27 µM | > 100 µM | 4.67 | > 100 µM | 18.8 | > 100 µM | 6.46 | > 100 µM | 4.08 µM | > 100 µM | 2.63 µM | > 100 µM
Cn1nc(C(F)(F)F)cc1-c1c[nH]c(OCc2ccc(Cl)cc2)c(-c2ccc(Cl)c(C(F)(F)F)c2)c1=O | 0.724 | > 50 µM | 0.761 | 2.52 µM | 1.13 | 3.51 | 1.26 µM | 4.86 | 1.27 µM | > 17.5 µM | 0.224 | 1.54 µM | 1.45 | > 50 µM | 1.08 | > 23.8 µM | 1.44 µM | 7.74 µM | 1.43 µM | > 50 µM
C[C@@H]1CCC([C@@H](C)[C@H]2CC[C@H]3[C@@H]4CC[C@H]5C[C@@H](O)CC[C@]5(C)[C@H]4CC[C@]23C)=NC1 | – | > 100 µM | – | 34.8 µM | – | > 84.6 | – | > 59.7 | – | > 86.4 µM | – | > 100 µM | – | > 100 µM | – | > 100 µM | – | > 100 µM | – | > 100 µM
Cc1ccc2c(c1)c(Sc1ccc(C(=O)NO)cc1)c1n2CN(C)CC1 | 3.17 | 11.9 µM | 1.88 | 4.21 µM | 1.51 | 4.13 | 1.71 µM | 3.5 | 1.61 µM | 3.42 µM | 2.1 | 6.37 µM | 2.27 | 5.81 µM | 1.6 | 3.7 µM | 1.77 µM | 4.45 µM | 1.51 µM | 9.04 µM
